Tests used:
human kinase Mps-1 = human kinase Mps-1 (Homo sapiens (Human), UniProt P33981); test: Mps-1 kinase assay (TR-FRET); type: biochemical; conditions: 10 μM ATP; read-out: Mps1 avg (IC50 [mol/l])
Method in brief: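 GST-tagged full-length human Mps-1 (~0.5 nM) preincubated 15 min with compound, then reacted 60 min at 22 °C with 10 μM ATP and 1 μM biotinylated peptide in Hepes pH 7.7 buffer. Phosphoproduct detected by TR-FRET (Eu anti-phospho-Ser/Thr, SA-XLent); 665/620 ratio normalised to no-inhibitor and no-enzyme controls.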

HeLa = test: Proliferation assay (crystal violet), HeLa; type: cell-based; conditions: Homo sapiens, 96 h, 4 days, read-out: Inhibition of proliferation IC50 HeLa
Method in brief: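 Tumour cells seeded at 1000–5000 cells/well in medium with 10% FCS, dosed after 24 h at 0.001–10 μM (0.5% DMSO final) for 4 days. Cell number read by crystal-violet staining after glutaraldehyde fixation (A595), normalised to zero-point plate (0%) and untreated cells (100%); IC50 from 4-parameter fit.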

Chain of human kinase Mps-1 (P33981 whole entry): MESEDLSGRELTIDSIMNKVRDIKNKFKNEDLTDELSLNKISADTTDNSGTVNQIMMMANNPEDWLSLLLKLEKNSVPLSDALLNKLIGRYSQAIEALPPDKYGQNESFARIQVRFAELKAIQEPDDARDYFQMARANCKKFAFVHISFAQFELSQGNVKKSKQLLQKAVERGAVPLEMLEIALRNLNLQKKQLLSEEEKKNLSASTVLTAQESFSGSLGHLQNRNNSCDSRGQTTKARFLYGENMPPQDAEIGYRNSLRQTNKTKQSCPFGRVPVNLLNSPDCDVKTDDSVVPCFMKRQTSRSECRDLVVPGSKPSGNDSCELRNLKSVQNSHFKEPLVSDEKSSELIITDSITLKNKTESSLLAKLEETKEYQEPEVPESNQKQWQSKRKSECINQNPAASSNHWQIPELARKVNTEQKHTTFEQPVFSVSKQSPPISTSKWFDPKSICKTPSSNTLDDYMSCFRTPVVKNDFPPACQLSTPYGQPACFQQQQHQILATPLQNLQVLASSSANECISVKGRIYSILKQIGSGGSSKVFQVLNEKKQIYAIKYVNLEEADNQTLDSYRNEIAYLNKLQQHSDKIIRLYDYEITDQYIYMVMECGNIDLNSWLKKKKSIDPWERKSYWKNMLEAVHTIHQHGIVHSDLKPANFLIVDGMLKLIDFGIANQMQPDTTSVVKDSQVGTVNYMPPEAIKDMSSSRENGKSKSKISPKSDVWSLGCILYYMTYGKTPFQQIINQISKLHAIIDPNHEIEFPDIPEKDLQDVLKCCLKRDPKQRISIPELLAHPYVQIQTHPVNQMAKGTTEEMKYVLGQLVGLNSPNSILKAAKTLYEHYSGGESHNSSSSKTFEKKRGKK

Q: Which IC50 (human kinase Mps-1) does the source give for `CCc1ccccc1NC(=O)c1c(C)nsc1Nc1ccncn1` [Example 2, N-(2-Ethylphenyl)-3-methyl-5-(pyrimidin-4-ylamino)-1,2-thiazole-4-carboxamide] here?
A: Its IC50 is over 20 µM.

Q: What about the IC50 (HeLa) of the same molecule?
A: Its IC50 is over 10000 nM.

Q: `CCc1ccccc1NC(=O)c1c(C)nsc1Nc1ncccc1C(F)(F)F` [Example 3, N-(2-Ethylphenyl)-3-methyl-5-{[3-(trifluoromethyl)pyridin-2-yl]amino}-1,2-thiazole-4-carboxamide] was tested. Which IC50 (human kinase Mps-1) did it give?
A: Its IC50 is over 20 µM.

Q: What about the IC50 (HeLa) of the same molecule?
A: Its IC50 is 7700 nM.

Q: What does the source list for `CCc1ccccc1NC(=O)c1c(C)nsc1Nc1cc(C#N)ccn1` [Example 4, 5-[(4-Cyanopyridin-2-yl)amino]-N-(2-ethylphenyl)-3-methyl-1,2-thiazole-4-carboxamide]?
A: IC50 (human kinase Mps-1): > 20 µM; IC50 (HeLa): 3200 nM

Q: Which results are given for `CCc1ccccc1NC(=O)c1c(C)nsc1Nc1nccc(-c2ccccc2)n1` [Example 5, N-(2-Ethylphenyl)-3-methyl-5-[(4-phenylpyrimidin-2-yl)amino]-1,2-thiazole-4-carboxamide]?
A: IC50 (human kinase Mps-1): > 20 µM; IC50 (HeLa): > 10000 nM

Q: With `Cc1nsc(Nc2nc3c(C(F)(F)F)ccnc3s2)c1C(=O)Nc1ccc(F)c(F)c1` [Example 58, N-(3,4-Difluorophenyl)-3-methyl-5-{[7-(trifluoromethyl)[1,3]thiazolo[5,4-b]pyridin-2-yl]amino}-1,2-thiazole-4-carboxamide] as the molecule, how does the IC50 (human kinase Mps-1) read?
A: The IC50 was 19 µM.

Q: What about the IC50 (HeLa) of the same molecule?
A: Its IC50 is 1500 nM.

Q: What does the source list for `COC(=O)c1cnc(Nc2snc(C)c2C(=O)Nc2ccc(F)c(F)c2)cn1` [Example 59, Methyl 5-({4-[(3,4-difluorophenyl)carbamoyl]-3-methyl-1,2-thiazol-5-yl}amino)-pyrazine-2-carboxylate]?
A: IC50 (human kinase Mps-1): > 20 µM; IC50 (HeLa): 990 nM

Q: Which IC50 (human kinase Mps-1) does the source give for `Cc1nsc(Nc2cnc3cc(C(F)(F)F)ccc3n2)c1C(=O)Nc1ccc(F)c(F)c1` [Example 60, N-(3,4-Difluorophenyl)-3-methyl-5-{[6-(trifluoromethyl)quinoxalin-2-yl]amino}-1,2-thiazole-4-carboxamide] here?
A: Its IC50 is over 20 µM.

Q: What about the IC50 (HeLa) of the same molecule?
A: Its IC50 is 730 nM.

Q: Which results are given for `Cc1nsc(Nc2cnc3cc(C(F)(F)F)ccc3n2)c1C(=O)Nc1ccc(Cl)c(Cl)c1` [Example 61, N-(3,4-Dichlorophenyl)-3-methyl-5-{[6-(trifluoromethyl)quinoxalin-2-yl]amino}-1,2-thiazole-4-carboxamide]?
A: IC50 (human kinase Mps-1): > 20 µM; IC50 (HeLa): 7700 nM

Q: `Cc1nsc(Nc2ccc(C#N)cn2)c1C(=O)Nc1ccc(Cl)c(Cl)c1` [Example 62, 5-[(5-Cyanopyridin-2-yl)amino]-N-(3,4-dichlorophenyl)-3-methyl-1,2-thiazole-4-carboxamide] was tested. Which IC50 (human kinase Mps-1) did it give?
A: The IC50 was over 20 µM.

Q: And the IC50 (HeLa)?
A: Its IC50 is 420 nM.

Q: What does the source list for `Cc1nsc(Nc2cncc(-c3ncco3)n2)c1C(=O)Nc1ccc(Cl)c(F)c1` [Example 63, N-(4-Chloro-3-fluorophenyl)-3-methyl-5-{[6-(1,3-oxazol-2-yl)pyrazin-2-yl]amino}-1,2-thiazole-4-carboxamide]?
A: IC50 (human kinase Mps-1): > 20 µM; IC50 (HeLa): 4100 nM

Q: For `Cc1nsc(Nc2cncc(-n3cccn3)n2)c1C(=O)Nc1ccc(F)c(F)c1` [Example 64, N-(3,4-Difluorophenyl)-3-methyl-5-{[6-(1H-pyrazol-1-yl)pyrazin-2-yl]amino}-1,2-thiazole-4-carboxamide], which IC50 (HeLa) is on record?
A: Its IC50 is 1600 nM.

Q: What does the source list for `Cc1nsc(Nc2cnccn2)c1C(=O)Nc1ccc(F)c(F)c1` [Example 65, N-(3,4-Difluorophenyl)-3-methyl-5-(pyrazin-2-ylamino)-1,2-thiazole-4-carboxamide]?
A: IC50 (human kinase Mps-1): > 20 µM; IC50 (HeLa): 2800 nM

Q: For `COC(=O)c1cncc(Nc2snc(C)c2C(=O)Nc2ccc(F)c(F)c2)n1` [Example 66, Methyl 6-({4-[(3,4-difluorophenyl)carbamoyl]-3-methyl-1,2-thiazol-5-yl}amino)-pyrazine-2-carboxylate], which IC50 (human kinase Mps-1) is on record?
A: Its IC50 is over 20 µM.

Q: What about the IC50 (HeLa) of the same molecule?
A: The IC50 was 2600 nM.

Q: What does the source list for `Cc1nsc(Nc2cncc(-n3cccn3)n2)c1C(=O)Nc1ccc(Cl)c(F)c1` [Example 67, N-(4-Chloro-3-fluorophenyl)-3-methyl-5-{[6-(1H-pyrazol-1-yl)pyrazin-2-yl]amino}-1,2-thiazole-4-carboxamide]?
A: IC50 (human kinase Mps-1): > 20 µM; IC50 (HeLa): 770 nM

Q: How did the IC50 (human kinase Mps-1) turn out when `Cc1nsc(Nc2cnc3cc(C(F)(F)F)ccc3n2)c1C(=O)Nc1ccc(Cl)c(F)c1` [Example 68, N-(4-Chloro-3-fluorophenyl)-3-methyl-5-{[6-(trifluoromethyl)quinoxalin-2-yl]amino}-1,2-thiazole-4-carboxamide] was run?
A: Its IC50 is over 20 µM.

Q: What about the IC50 (HeLa) of the same molecule?
A: The IC50 was 1000 nM.

Q: For `Cc1cncc(Nc2snc(C)c2C(=O)Nc2ccc(F)c(F)c2)n1` [Example 69], which IC50 (human kinase Mps-1) is on record?
A: Its IC50 is over 20 µM.

Q: And the IC50 (HeLa)?
A: The IC50 was 7000 nM.

Q: Which results are given for `CNC(=O)c1cncc(Nc2snc(C)c2C(=O)Nc2ccc(F)c(F)c2)n1` [Example 70, 6-({4-[(3,4-Difluorophenyl)carbamoyl]-3-methyl-1,2-thiazol-5-yl}amino)-N-methylpyrazine-2-carboxamide]?
A: IC50 (human kinase Mps-1): > 20 µM; IC50 (HeLa): 6400 nM

Q: `Cc1nsc(Nc2cncc(Cl)n2)c1C(=O)Nc1ccc(F)c(F)c1` [Example 71, 5-[(6-Chloropyrazin-2-yl)amino]-N-(3,4-difluorophenyl)-3-methyl-1,2-thiazole-4-carboxamide] was tested. Which IC50 (human kinase Mps-1) did it give?
A: Its IC50 is over 20 µM.

Q: And the IC50 (HeLa)?
A: Its IC50 is 380 nM.

Q: `COc1cncc(Nc2snc(C)c2C(=O)Nc2ccc(F)c(F)c2)n1` [Example 72, N-(3,4-Difluorophenyl)-5-[(6-methoxypyrazin-2-yl)amino]-3-methyl-1,2-thiazole-4-carboxamide] was tested. Which IC50 (human kinase Mps-1) did it give?
A: Its IC50 is over 20 µM.

Q: And the IC50 (HeLa)?
A: Its IC50 is 1700 nM.

Q: For `CCNC(=O)c1cncc(Nc2snc(C)c2C(=O)Nc2ccc(F)c(F)c2)n1` [Example 73, 6-({4-[(3,4-Difluorophenyl)carbamoyl]-3-methyl-1,2-thiazol-5-yl}amino)-N-ethylpyrazine-2-carboxamide], which IC50 (human kinase Mps-1) is on record?
A: The IC50 was over 20 µM.

Q: And the IC50 (HeLa)?
A: Its IC50 is 1200 nM.

Q: `Cc1nsc(Nc2cnc(Cl)cn2)c1C(=O)Nc1ccc(F)c(F)c1` [Example 74, 5-[(5-Chloropyrazin-2-yl)amino]-N-(3,4-difluorophenyl)-3-methyl-1,2-thiazole-4-carboxamide] was tested. Which IC50 (human kinase Mps-1) did it give?
A: The IC50 was over 20 µM.

Q: What about the IC50 (HeLa) of the same molecule?
A: The IC50 was 260 nM.

Q: Which IC50 (human kinase Mps-1) does the source give for `CNC(=O)c1cnc(Nc2snc(C)c2C(=O)Nc2ccc(F)c(F)c2)cn1` [Example 75, 5-({4-[(3,4-Difluorophenyl)carbamoyl]-3-methyl-1,2-thiazol-5-yl}amino)-N-methylpyrazine-2-carboxamide] here?
A: The IC50 was over 20 µM.

Q: And the IC50 (HeLa)?
A: Its IC50 is 1900 nM.

Q: With `CCc1cncc(Nc2snc(C)c2C(=O)Nc2ccc(F)c(F)c2)n1` [Example 76, N-(3,4-Difluorophenyl)-5-[(6-ethylpyrazin-2-yl)amino]-3-methyl-1,2-thiazole-4-carboxamide] as the molecule, how does the IC50 (human kinase Mps-1) read?
A: The IC50 was over 20 µM.

Q: What about the IC50 (HeLa) of the same molecule?
A: The IC50 was 2600 nM.

Q: Which IC50 (human kinase Mps-1) does the source give for `Cc1nsc(Nc2cnc(Br)cn2)c1C(=O)Nc1ccc(F)c(F)c1` [Example 77, 5-[(5-Bromopyrazin-2-yl)amino]-N-(3,4-difluorophenyl)-3-methyl-1,2-thiazole-4-carboxamide] here?
A: The IC50 was over 20 µM.

Q: What about the IC50 (HeLa) of the same molecule?
A: Its IC50 is 200 nM.

Q: With `CCNc1cncc(Nc2snc(C)c2C(=O)Nc2ccc(F)c(F)c2)n1` [Example 78, N-(3,4-Difluorophenyl)-5-{[6-(ethylamino)pyrazin-2-yl]amino}-3-methyl-1,2-thiazole-4-carboxamide] as the molecule, how does the IC50 (human kinase Mps-1) read?
A: Its IC50 is 16 µM.

Q: And the IC50 (HeLa)?
A: Its IC50 is 2500 nM.

Q: Which results are given for `CCc1cnc(Nc2snc(C)c2C(=O)Nc2ccc(F)c(F)c2)cn1` [Example 79, N-(3,4-Difluorophenyl)-5-[(5-ethylpyrazin-2-yl)amino]-3-methyl-1,2-thiazole-4-carboxamide]?
A: IC50 (human kinase Mps-1): > 20 µM; IC50 (HeLa): 800 nM

Q: Which results are given for `CNC(=O)c1ccc(Nc2snc(C)c2C(=O)Nc2ccc(F)c(F)c2)nn1` [Example 80, 6-({4-[(3,4-Difluorophenyl)carbamoyl]-3-methyl-1,2-thiazol-5-yl}amino)-N-methylpyridazine-3-carboxamide]?
A: IC50 (human kinase Mps-1): > 20 µM; IC50 (HeLa): 4400 nM

Q: How did the IC50 (human kinase Mps-1) turn out when `Cc1nsc(Nc2cnc(C(F)(F)F)cn2)c1C(=O)Nc1ccc(F)c(F)c1` [Example 81, N-(3,4-Difluorophenyl)-3-methyl-5-{[5-(trifluoromethyl)pyrazin-2-yl]amino}-1,2-thiazole-4-carboxamide] was run?
A: The IC50 was over 20 µM.

Q: And the IC50 (HeLa)?
A: Its IC50 is 380 nM.

Q: How did the IC50 (human kinase Mps-1) turn out when `Cc1nsc(Nc2cncc(C(F)(F)F)n2)c1C(=O)Nc1ccc(F)c(F)c1` [Example 82, N-(3,4-Difluorophenyl)-3-methyl-5-{[6-(trifluoromethyl)pyrazin-2-yl]amino}-1,2-thiazole-4-carboxamide] was run?
A: The IC50 was over 20 µM.

Q: What about the IC50 (HeLa) of the same molecule?
A: Its IC50 is 110 nM.

Q: What does the source list for `Cc1nsc(Nc2ccc(C(F)(F)F)nn2)c1C(=O)Nc1ccc(F)c(F)c1` [Example 83, N-(3,4-Difluorophenyl)-3-methyl-5-{[6-(trifluoromethyl)pyridazin-3-yl]amino}-1,2-thiazole-4-carboxamide]?
A: IC50 (human kinase Mps-1): > 20 µM; IC50 (HeLa): 920 nM

Q: What does the source list for `COc1ccc(NC(=O)c2c(C)nsc2Nc2cncc(C(F)(F)F)n2)cn1` [Example 84, N-(6-methoxypyridin-3-yl)-3-methyl-5-{[6-(trifluoromethyl)pyrazin-2-yl]amino}-1,2-thiazole-4-carboxamide]?
A: IC50 (human kinase Mps-1): > 20 µM; IC50 (HeLa): 290 nM

Q: Which IC50 (HeLa) does the source give for `COc1ccc2nc(Nc3snc(C)c3C(=O)Nc3ccc(OC)nc3)sc2c1` [Example 87, 5-[(6-Methoxy-1,3-benzothiazol-2-yl)amino]-N-(6-methoxypyridin-3-yl)-3-methyl-1,2-thiazole-4-carboxamide] here?
A: Its IC50 is 2800 nM.

Q: How did the IC50 (HeLa) turn out when `COc1ccc(NC(=O)c2c(C)nsc2Nc2nc3ccc(F)cc3s2)cn1` [Example 88, 5-[(6-Fluoro-1,3-benzothiazol-2-yl)amino]-N-(6-methoxypyridin-3-yl)-3-methyl-1,2-thiazole-4-carboxamide] was run?
A: Its IC50 is 2100 nM.

Q: Which IC50 (HeLa) does the source give for `CCc1ccccc1NC(=O)c1c(C)nsc1Nc1nc(C(=O)OC)co1` [Example 91, Methyl 2-({4-[(2-ethylphenyl)carbamoyl]-3-methyl-1,2-thiazol-5-yl}amino)-1,3-oxazole-4-carboxylate] here?
A: Its IC50 is 9700 nM.
